Measured values taken from US10738041B2, “Ferroportin inhibitors” (Vifor (International) AG, priority 2015, dated 2020).

Tests used:
naïve WT C57BL/6 mice = assay: Hypoferremia in naïve mice; type: in vivo, mouse; details: Mus musculus, po, 3 h, naïve WT C57BL/6 mice, relative to vehicle, read-out: Serum Iron Reduction at 3 h (%); for inhibition in vivo at 10 mg/kg: Dose 10 mg/kg p.o.; for inhibition in vivo at 30 mg/kg: Dose 30 mg/kg p.o.; for inhibition in vivo at 100 mg/kg: Dose 100 mg/kg p.o.
Method: Female C57BL/6 mice (Janvier, France) at age of 9 weeks were fed a standard diet (Harlan Provimi Kliba 3436) and treated per os (p.o.) with compounds or the corresponding amount of vehicle at a volume of 10 ml/kg body weight. Fpn inhibitors were formulated in 0.5% methylcellulose/water or 20% cremophor EL/water and dosed p.o. in mice at 10, 30 or 100 mg/kg body weight. Three hours later, mice were pre terminally anesthetized in isoflurane chambers and blood was collected by retro-orbital bleeding. Mice were sacrificed by cervical dislocation and spleens, livers and duodena were harvested and used for biomarker analysis. All experiments have been conducted in compliance with the license approved by the responsible veterinarian authorities. Serum was isolated by centrifugation of blood into gel-containing microtainers and serum iron was determined by the MULTIGENT Iron assay (Abbott Diagnostics, 6K95). Eight mice per group were used and one-way ANOVA with Bonferroni's multiple comparison test was performed to analyze the statistical differences between the experimental groups.

human Fpn = biological target: T1, human Fpn (Homo sapiens, UniProt Q9NP59); assay: Biophysical Ferroportin-Hepcidin Binding Assay (fluorescence polarization); details: average of multiple measurements; 1 μM human Fpn, 20 nM TMR-hepcidin; read-out: FP IC50
T1 construct: FLAG (C); made in house; host or cells: Pichia pastoris
T1 sequence (Q9NP59 1-571): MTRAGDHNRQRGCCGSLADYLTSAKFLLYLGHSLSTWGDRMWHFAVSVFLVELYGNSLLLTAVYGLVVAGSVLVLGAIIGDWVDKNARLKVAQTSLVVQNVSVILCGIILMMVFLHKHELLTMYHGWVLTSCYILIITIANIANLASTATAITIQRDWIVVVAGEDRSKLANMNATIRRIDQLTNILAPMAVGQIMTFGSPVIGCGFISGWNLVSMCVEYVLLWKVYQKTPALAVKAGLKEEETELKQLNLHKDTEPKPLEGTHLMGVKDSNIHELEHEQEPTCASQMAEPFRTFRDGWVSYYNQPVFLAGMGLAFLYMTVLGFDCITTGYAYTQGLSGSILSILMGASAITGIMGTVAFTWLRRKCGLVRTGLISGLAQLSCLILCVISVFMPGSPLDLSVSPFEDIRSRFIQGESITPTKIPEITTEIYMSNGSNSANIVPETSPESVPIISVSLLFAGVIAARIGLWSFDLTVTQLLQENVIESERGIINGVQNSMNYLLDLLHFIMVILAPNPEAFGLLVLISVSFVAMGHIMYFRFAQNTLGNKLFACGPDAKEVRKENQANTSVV
Method in brief: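 Purified human Fpn (C-terminal FLAG tag, expressed in Pichia pastoris) at 1 μM final was incubated with 20 nM TMR-hepcidin and serially diluted compounds in duplicate for 90 min at room temperature. Binding inhibition was read as a dose-dependent fall in FP (mP), calculated from parallel and perpendicular fluorescence.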

human Fpn-GFP fusion = biological target: T2, human Fpn-GFP fusion (Homo sapiens, UniProt Q9NP59); assay: Ferroportin Internalization and Degradation Assay (FACS); type: cell-based; details: average of multiple measurements, Fpn-GFP MFI, HEK-293 cell line #354, FACS; for DC50: read-out: EC50 ferroportin internalization and degradation
T2 construct: expressed in transfected cells; host or cells: HEK-293 cell line #354 (derivative of HEK-293 Tet-ON Advanced, Clontech)
T2 sequence (Q9NP59 1-571): T1 sequence (Q9NP59 1-571)
Method: Growing HEK-293 #354 cells in doxycycline containing media induced expression of human Fpn-GFP fusion protein on the cell surface. […] Small molecular weight Fpn inhibitor compounds were tested for dose-dependent effects on the Fpn-GFP mean fluorescence intensity (MFI) on HEK-293 cell line #354, as described below. HEK #354 cells were harvested from ca. 80% confluent cultures, seeded at 0.6×10^6 (cells/ml in DMEM/F12 GlutaMAX™ medium (Invitrogen, Cat. 31331-028) containing 10% FBS (Clontech, Cat. 631106), 1% Penicillin-Streptomycin (Invitrogen, Cat. 15140-122), 200 μg/ml Hygromycin B (Invitrogen, Cat. 10687-010), Blasticidin 5 μg/ml, (Invitrogen, Cat. R210-01), 4 μg/ml doxycycline (Clontech, Cat. 631311), 50 μl per well of 384 well plates (Greiner; Cat. 781091) and grown at 37° C. with 5% CQ. After overnight incubation, 10 μl/well of dilution series of the test compounds were added in quadruplicates and plates were further incubated overnight at 37° C. with 5% CO2. Cells were washed once with FACS buffer (PBS containing 1% FBS, 2 mM EDTA and 0.05% NaN3), harvested in FACS buffer with 0.5 μg/ml propidium iodide (Sigma, Cat. P4864) and analyzed in a flow cytometer (CANTO™ II, BD Biosciences) equipped with high throughput sampler. Live HEK #354 cells were gated as propidium iodide negative population and analyzed for expression of Fpn-GFP.

SMILES	inhibition in vivo at 10 mg/kg (naïve WT C57BL/6 mice) [%]	inhibition in vivo at 30 mg/kg (naïve WT C57BL/6 mice) [%]	inhibition in vivo at 100 mg/kg (naïve WT C57BL/6 mice) [%]	IC50 (human Fpn) [nM]	EC50 (human Fpn-GFP fusion) [nM]	DC50 (human Fpn-GFP fusion) [nM]
O=C(NCc1ccccn1)c1csc(CCNCc2nc3ccccc3[nH]2)n1 [Example 12]	15	20	45	860	–	–
O=C(NC1CCc2cccnc21)c1csc(CCNCc2nc3ccccc3[nH]2)n1 (stereo not drawn) [Example 39]	10	20	35	1340	–	–
O=C(NCc1ncccc1Cl)c1csc(CCNCc2nc3ccccc3[nH]2)n1 [Example 82]	–	–	–	374	689	–
Cc1cnccc1CNC(=O)c1csc(CCNCc2nc3ccccc3[nH]2)n1 [Example 90]	0	0	40	418	–	–
O=C(NCc1ncccc1F)c1csc(CCNCCc2nc3ccccc3[nH]2)n1 [Example 94]	30	50	80	44	220	–
O=C(NCc1ncccc1F)c1cnn(CCNCCc2nc3ccccc3[nH]2)c1 [Example 111]	–	–	–	51	75	–
O=C(NCc1ncc(F)cc1F)c1csc(CCNCCc2nc3ccccc3[nH]2)n1 [Example 116]	–	–	–	58	590	–
O=C(NCc1ncccc1F)c1csc(CNCCc2nc3ccccc3[nH]2)n1 [Example 118]	8	24	49	250	4910	–
O=C(NCc1ncccc1F)c1csc(CCNCCc2nc3cc(F)ccc3[nH]2)n1 [Example 120]	–	–	–	71	530	–
O=C(NCc1cccnn1)c1csc(CCNCCc2nc3ccccc3[nH]2)n1 [Example 122]	–	–	–	214	3020	–
O=C(NCc1ncccc1F)c1coc(CCNCc2nc3ccccc3[nH]2)n1 [Example 126]	7	23	62	120	757	–
O=C(NCc1ncccc1F)c1coc(CCNCCc2nc3ccccc3[nH]2)n1 [Example 127]	17	47	54	23	81	–
O=C(NCc1ncccc1F)c1csc(CCCNCc2nc3ccccc3[nH]2)n1 [Example 134]	–	–	–	970	5190	–
O=C(NCc1ccccn1)c1coc(CCNCc2nc3ccccc3[nH]2)n1 [Example 137]	-2	14	25	1040	11100	–
O=C(NCc1ncccc1Cl)c1cnn(CCNCc2nc3ccccc3[nH]2)c1 [Example 138]	–	–	–	160	678	–
O=C(NCc1ncccc1Cl)c1coc(CCNCc2nc3ccccc3[nH]2)n1 [Example 141]	–	–	–	49	290	–
O=C(NCc1ncccc1Cl)c1cnn(CCNCCc2nc3ccccc3[nH]2)c1 [Example 144]	–	–	–	73	43	–
O=C(NCc1ncccc1F)c1nc(CCNCc2nc3ccccc3[nH]2)sc1Cl [Example 151]	–	–	–	89	523	–

SMILES	inhibition in vivo at 10 mg/kg (naïve WT C57BL/6 mice) [%]	inhibition in vivo at 30 mg/kg (naïve WT C57BL/6 mice) [%]	inhibition in vivo at 100 mg/kg (naïve WT C57BL/6 mice) [%]	IC50 (human Fpn) [nM]	EC50 (human Fpn-GFP fusion) [nM]	DC50 (human Fpn-GFP fusion) [nM]
O=C(NCc1ncccc1F)c1csc(CCN(CCc2nc3ccccc3[nH]2)CCc2nc3ccccc3[nH]2)n1 [Example 152]	–	–	–	23	71	–
O=C(NCc1ncccc1F)c1nc(CCNCCc2nc3ccccc3[nH]2)sc1Cl [Example 154]	13	35	56	30	130	–
O=C(NC1CCc2cccnc21)c1csc(CCNCCc2nc3ccccc3[nH]2)n1 (stereo not drawn) [Example 158]	–	–	–	41	325	–
O=C(NCc1cccnn1)c1nc(CCNCc2nc3ccccc3[nH]2)sc1Cl [Example 161]	–	–	–	260	5300	–
O=C(NCc1ncccc1F)c1ncn(CCNCc2nc3ccccc3[nH]2)n1 [Example 169]	–	–	–	540	4120	–
O=C(NCc1ncccc1F)c1ncn(CCNCCc2nc3ccccc3[nH]2)n1 [Example 181]	–	–	–	89	930	–
O=C(NCc1ncccc1F)c1csc(CCNCC(F)(F)c2nc3ccccc3[nH]2)n1 [Example 196]	–	–	–	870	–	24800
O=C(NCc1ncccc1F)c1coc(C2CN(CCc3nc4ccccc4[nH]3)C2)n1 [Example 208]	50	65	73	19	150	–
O=C(NCc1ncccc1F)c1cccc(CNCCc2nc3ccccc3[nH]2)c1 [Example 224]	–	–	–	201	–	1830
O=C(NCc1ncccc1F)c1coc(CCNCCc2nc3c(Cl)cccc3[nH]2)n1 [Example 226]	–	–	–	26	490	–
O=C(NCc1ncccc1F)c1coc(CCNCCc2nc3c(F)cccc3[nH]2)n1 [Example 228]	13	26	55	21	460	–
Cc1oc(CCNCCc2nc3ccccc3[nH]2)nc1C(=O)NCc1ncccc1F [Example 230]	–	–	–	58	950	–
O=C(NCc1ncccc1F)c1coc(C2CN(CCc3nc4c(F)cccc4[nH]3)C2)n1 [Example 239]	12	20	51	38	320	–
O=C(NCc1ncccc1F)c1csc(CCNCCc2nc3c(F)cccc3[nH]2)n1 [Example 243]	–	–	–	34	510	–
O=C(NCc1ncccc1F)c1coc(CCNCCc2nc3c(F)cc(F)cc3[nH]2)n1 [Example 249]	–	–	–	44	950	–
O=C(NCc1ncccc1F)c1coc(CCNCCc2nc3cc(F)ccc3[nH]2)n1 [Example 250]	5	18	40	19	600	–
O=C(NCc1ncccc1F)c1cncc(C2CN(CCc3nc4ccccc4[nH]3)C2)c1 [compound 237]	0	15	27	66	–	–
